Here are results for twelve molecules from patent US4355040A, “Hypotensive imidazole-5-acetic acid derivatives” (Takeda Chemical Industries, Ltd., priority 1979, dated 1982).

The subject of experiment [1] is angiotensin II-induced elevation of blood pressure. Nature of the experiment: Inhibitory activity against angiotensin II-induced elevation of blood pressure in rats. Type of experiment: in vivo, Male SD rats. The settings on record: for inhibition in vivo at 0.3 mg/kg / inhibition in vivo at 0.5 mg/kg / inhibition in vivo at 1 mg/kg / inhibition in vivo at 0.1 mg/kg / inhibition in vivo at 0.03 mg/kg / inhibition in vivo at 3 mg/kg: Rattus norvegicus, iv; for inhibition in vivo at 0.5 mg/kg: 0.5 mg/kg intravenously; for inhibition in vivo at 1 mg/kg: 1.0 mg/kg intravenously; for inhibition in vivo at 0.03 mg/kg: 0.03 mg/kg intravenously; for inhibition in vivo at 3 mg/kg: 3.0 mg/kg intravenously.

For experiment [2], the system named is angiotensin II (aortic blood vessel of rabbits). Kind of experiment: Antagonistic effect on angiotensin II (A II)-induced tension, aortic blood vessel of rabbits. The format is cell-based. The note with it: Oryctolagus cuniculus, 0.25 h, A II 4×10^-9 M, 15 minutes; for inhibition at 1 µM: 10^-6 M drug substance, read-out: Inhibition.
Description: Antagonistic effect of the compound (I) of the present invention on angiotensin II (hereinafter referred to briefly as "A II") (with aortic blood vessel of rabbits)
The blood-vessel preparation and reaction were done in accordance with the method as described in "European Journal of Pharmacology", 18, 316 (1972). […] [formula] where; T1 =Change in isometric tension of the blood vessel brought about by A II without a test drug substance (g)
Setting [3] is: 10 min, 0.3 mg/kg intravenously, A II 20 ng/kg/min, 10 min, read-out: Inhibition (%), after 10 min.
Setting [4] is: 10 min, A II 20 ng/kg/min, 10 min, read-out: Inhibition (%), after 10 min.
Setting [5] is: 0.5 h, 0.3 mg/kg intravenously, A II 20 ng/kg/min, 30 min, read-out: Inhibition (%), after 30 min.
Setting [6] is: 0.5 h, A II 20 ng/kg/min, 30 min, read-out: Inhibition (%), after 30 min.
Where [7] appears, read: 1.5 h, 0.3 mg/kg intravenously, A II 20 ng/kg/min, 90 min, read-out: Inhibition (%), after 90 min.
Where [8] appears, read: 1.5 h, A II 20 ng/kg/min, 90 min, read-out: Inhibition (%), after 90 min.
Where [9] appears, read: 10 min, read-out: Inhibition (%), after 10 min.
The mark [10] stands for this setting: 0.5 h, read-out: Inhibition (%), after 30 min.
The mark [11] stands for this setting: 1.5 h, read-out: Inhibition (%), after 90 min.
The mark [12] stands for this setting: 10 min, 0.1 mg/kg intravenously, A II 20 ng/kg/min, 10 min, read-out: Inhibition (%), after 10 min.
Where [13] appears, read: 0.5 h, 0.1 mg/kg intravenously, A II 20 ng/kg/min, 30 min, read-out: Inhibition (%), after 30 min.
Setting [14] is: 1.5 h, 0.1 mg/kg intravenously, A II 20 ng/kg/min, 90 min, read-out: Inhibition (%), after 90 min.

Read-outs that look alike come from different tables or passages of the source.

For the molecule `O=C(O)Cc1c(Cl)nc(-c2ccc(O)cc2)n1Cc1ccccc1` [drawing 132], the inhibition in vivo at 0.3 mg/kg in experiment [1] (setting [3]) was determined as 10.7 ± 1.8%; in experiment [1] (setting [5]), 24.3 ± 2.3%; in experiment [1] (setting [7]), 11.7 ± 6%. The inhibition in vivo at 0.5 mg/kg in experiment [1] (setting [4]) is 14.8 ± 1.8%; in experiment [1] (setting [6]) it was 36 ± 3%; in experiment [1] (setting [8]), 35 ± 3.9%.
For the molecule `Nc1ccc(-c2nc(Cl)c(CC(=O)O)n2Cc2ccccc2)cc1` [drawing 133], the inhibition in vivo at 0.5 mg/kg in experiment [1] (setting [4]) worked out at 17.7 ± 1.2%; in experiment [1] (setting [6]) it was 45.3 ± 2.4%; in experiment [1] (setting [8]), 37 ± 8.6%.
On to `O=C(O)Cc1c(Cl)nc(-c2ccccc2)n1Cc1ccccc1Cl` [drawing 134], for which the results for the inhibition in vivo at 1 mg/kg in experiment [1] (setting [4]), in experiment [1] (setting [6]) and in experiment [1] (setting [8]) were 11.8 ± 1.8%, 36.5 ± 4.5% and 32.3 ± 7%, respectively.
As for `O=C(O)Cc1c(Cl)nc(-c2cc([N+](=O)[O-])c(Cl)c([N+](=O)[O-])c2)n1Cc1ccccc1` [drawing 135], the inhibition in vivo at 0.1 mg/kg is 22.5 ± 3.2% in experiment [1] (setting [9]), 55 ± 7.5% in experiment [1] (setting [10]) and 55 ± 7.5% in experiment [1] (setting [11]). Also, the results for the inhibition in vivo at 0.3 mg/kg in experiment [1] (setting [9]), in experiment [1] (setting [10]) and in experiment [1] (setting [11]) were 18%, 72% and 72%, respectively.
As to `CCCCOc1ccc(Cn2c(-c3ccccc3)nc(Cl)c2CC(=O)O)cc1` [drawing 136], the inhibition in vivo at 0.03 mg/kg in experiment [1] (setting [4]) came to 17%; in experiment [1] (setting [6]), 46.5%; in experiment [1] (setting [8]), 40%. Moreover, the inhibition in vivo at 3 mg/kg in experiment [1] (setting [4]) was 20%; in experiment [1] (setting [6]), 40%; in experiment [1] (setting [8]), 0%.
With `COc1ccc(Cn2c(-c3ccccc3)nc(Cl)c2CC(=O)O)cc1C` [drawing 137], the values for the inhibition in vivo at 0.5 mg/kg in experiment [1] (setting [4]), in experiment [1] (setting [6]) and in experiment [1] (setting [8]) were 33 ± 15%, 60 ± 18% and 62 ± 7%, respectively.
`CCCCc1nc(Cl)c(CC(=O)O)n1Cc1ccccc1Cl` [n-C4 H9 / 2-Cl / H / H]: the values for the inhibition in vivo at 0.1 mg/kg in experiment [1] (setting [12]), in experiment [1] (setting [13]) and in experiment [1] (setting [14]) were 38%, 100% and 86%, respectively. For the same molecule, the inhibition (as a rule, the relative decrease from the control value, in per cent) at 0.1 µM in experiment [2] (10^-7 M drug substance) came out at 75%.
`CCCCc1nc(Cl)c(CC(=O)O)n1Cc1ccccc1` [n-C4 H9 / H / H / H, 1-Benzyl-2-n-butyl-4-chloroimidazole-5-acetic acid]: the inhibition in vivo at 0.1 mg/kg in experiment [1] (setting [12]) was 19.6 ± 1.5%; in experiment [1] (setting [13]), 64.3 ± 15.3%; in experiment [1] (setting [14]), 60 ± 21.5%. Moreover, the inhibition in vivo at 0.3 mg/kg was found to be 25% in experiment [1] (setting [3]), 94% in experiment [1] (setting [5]) and 94% in experiment [1] (setting [7]). Besides, the inhibition at 1 µM in experiment [2] amounted to 55%.
Take `CCCCCCc1nc(Cl)c(CC(=O)O)n1Cc1ccc(OCCCC)cc1` [n-C6 H13 / 4-n-C4 H9 O / H / H]: the inhibition at 1 µM in experiment [2] was 100%.
In the case of `CCCCCc1nc(Cl)c(CC(=O)O)n1Cc1ccccc1` [n-C 5 H11 / H / H / H], the inhibition at 1 µM in experiment [2] was 65%.
In the case of `CC(C)(C)c1nc(Cl)c(CC(=O)O)n1Cc1ccccc1` [t-C4 H9 / H / H / H], the inhibition at 1 µM in experiment [2] was found to be 10%.
For “A II: angiotensin II (hereinafter referred to briefly as "A II") (DRVYIHPF; Angiotensin-2; UniProt P01019 25-32, looked up) [reference compound]”, the “elevation of blood pressure after the infusion of A II, as compared with the one before the infusion” value in experiment [1] (A II 20 ng/kg/min continuous intravenous infusion, 75 cases, no test drug) amounted to 45.5±2.1 mmHg.
